In paper PMC3199943, “Screening the MayBridge Rule of 3 Fragment Library for Compounds That Interact with the Trypanosoma brucei myo-Inositol-3-Phosphate Synthase and/or Show Trypanocidal Activity” (Molecular Biology International, 2011):

Legend:
[1] = tested on: HeLa cells; experiment: cells; conditions: for viability at 500 µM / CC50: Homo sapiens, HeLa; for viability at 500 µM: 65 h, read-out: HeLa Cells Alamar Blue; for HeLa Cells Alamar Blue: Supplementary Table 1, compound 0.5 mM, percentage of controls, mean ± SD (n=3) or SE (n=2); for CC50: read-out: HeLa ED50
Summary of the method: (§1)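 Alamar Blue read-out after a 5 h dye incubation that followed ~65 h compound exposure. Cells: HeLa or A549, 2 × 10^4/well, DMEM + 10% FCS + 2 mM L-Glutamine.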

[2] = tested on: A549 cells; experiment: Cytotoxicity against A549 cells, Alamar Blue; assay type: cell-based; conditions: Supplementary Table 1, compound 0.5 mM, percentage of controls (n=1); for viability at 500 µM: Homo sapiens, A549, 65 h
Summary of the method: as §1

| Structure (SMILES) | viability at 500 µM [1] | viability at 500 µM [2] | HeLa Cells Alamar Blue [1] | A549 Cells Alamar Blue [2] | CC50 [1] |
| --- | --- | --- | --- | --- | --- |
| OCc1csc(-c2ccccc2)n1 [compound 557, (2‐phenyl‐1,3‐thiazol‐4‐yl)methanol] | 58.1 ± 13.4% | 78.4% |  |  |  |
| Cc1noc(N)c1C [compound 32, 3,4‐dimethylisoxazol‐5‐amine] | 76.4 ± 5.7% | 71.7% |  |  |  |
| Cc1cccc(N2CCNCC2)c1C [compound 549, 1‐(2,3‐dimethylphenyl)piperazine] | 10.1 ± 5.7% | 13.6% |  |  |  |
| Cn1c(C(=O)O)cc2sccc21 [compound 464, 4‐methyl‐4H‐thieno[3,2‐b]pyrrole‐5‐carboxylic acid] |  |  | 93.5 ± 4.2 percentage of controls | 89.4 percentage of controls |  |
| OCc1ccc2c(c1)OCO2 [compound 200, 1,3‐benzodioxol‐5‐ylmethanol] | 85.2 ± 9.3% | 92.1% |  |  |  |
| Nc1cccc(COc2ccccc2)c1 [compound 616, 3‐(phenoxymethyl)aniline] | 80.5 ± 17.9% | 57.5% |  |  |  |
| Cc1cc(N)on1 [compound 10, 3‐methylisoxazol‐5‐amine] | 66 ± 4.6% | 87.2% |  |  |  |
| OCC1COc2ccccc2O1 (stereo not drawn) [compound 319, 2,3‐dihydro‐1,4‐benzodioxin‐2‐ylmethanol] |  |  | 102.6 ± 5.1 percentage of controls | 86.4 percentage of controls |  |
| OCC1CCc2ccccc2O1 (stereo not drawn) [compound 299, 3,4‐dihydro‐2H‐chromen‐2‐ylmethanol] | 85.1 ± 14.7% | 80.3% |  |  |  |
| COC(=O)c1ccccc1Cl [compound 352, methyl 2‐chlorobenzoate] | 95.8 ± 19% | 76.4% |  |  |  |
| OCc1ccc2c(c1)OCCO2 [compound 320, 2,3‐dihydro‐1,4‐benzodioxin‐6‐ylmethanol] |  |  | 111.9 ± 16.4 percentage of controls | 78.8 percentage of controls |  |
| COC(=O)CSc1ccccc1 [compound 466, methyl 2‐(phenylthio)acetate] | 102 ± 4.8% | 84.7% |  |  |  |
| Nc1nc(-c2ccccc2)ns1 [compound 423, 3‐phenyl‐1,2,4‐thiadiazol‐5‐amine] | 82.7 ± 3.9% | 52.7% |  |  |  |
| OCc1ccccc1-c1cccs1 [compound 543, (2‐thien‐2‐ylphenyl)methanol] | 73.9 ± 3.7% | 56.5% |  |  |  |
| O=C1CCC(C(F)(F)F)CC1 [compound 317, 4‐(trifluoromethyl)cyclohexan‐1‐one] | 111 ± 7.2% | 90.5% |  |  |  |
| Cc1onc(-c2ccccc2)c1CO [compound 534, (5‐methyl‐3‐phenyl‐4‐isoxazolyl)methanol] | 78.8 ± 15.6% | 62.9% |  |  |  |
| N#CC(c1ccccc1)N1CCOCC1 (stereo not drawn) [compound 638, 2‐morpholino‐2‐phenylacetonitrile] | 80.5 ± 8.2% | 89.8% |  |  |  |
| Nc1ccccc1-c1cccnc1 [compound 348, 2‐pyridin‐3‐ylaniline] | 18.2 ± 10% | 85.3% |  |  | 21.8 ± 1.8 µM |
| CNCc1ccc(N2CCCCC2)cc1 [compound 657, N‐methyl‐N‐(4‐piperidin‐1‐ylbenzyl)amine] | 40.9 ± 12% | 77.4% |  |  |  |

| Structure (SMILES) | viability at 500 µM [1] | viability at 500 µM [2] | HeLa Cells Alamar Blue [1] | A549 Cells Alamar Blue [2] | CC50 [1] |
| --- | --- | --- | --- | --- | --- |
| O=C(O)c1cccs1 [compound 85, thiophene‐2‐carboxylic acid] | 100 ± 7.4% | 119% |  |  |  |
| Nc1ccc(C(F)(F)F)cn1 [compound 283, 5‐(trifluoromethyl)pyridin‐2‐amine] | 92.7 ± 5.3% | 63.6% |  |  |  |
| OCc1ccc(C(F)(F)F)o1 [compound 314, [5‐(trifluoromethyl)‐2‐furyl]methanol] | 114 ± 8.2% | 76.9% |  |  |  |
| CCOC(=O)C1CCNCC1 [compound 245, ethyl piperidine‐4‐carboxylate] | 97.8 ± 3.2% | 99% |  |  |  |
| Nc1cccc(-c2cccnc2)c1 [compound 346, 3‐pyridin‐3‐ylaniline] | 73.9 ± 6.1% | 98.5% |  |  |  |
| COc1cc2c(cc1OC)C(C)=NCC2 [compound 664, 6,7‐dimethoxy‐1‐methyl‐3,4‐dihydroisoquinoline] |  |  | 75.4 ± 2.2 percentage of controls | 77.7 percentage of controls |  |
| OC12CC3CC(CC(C3)C1)C2 [compound 209, adamantan‐1‐ol] | 92.2 ± 6.7% | 76.1% |  |  |  |
| Cc1ccc2oc(=O)ccc2c1 [compound 265, 6‐methyl‐2H‐chromen‐2‐one] | 95.8 ± 17.2% | 63.8% |  |  |  |
| CN1CCN(C)C(CO)C1 (stereo not drawn) [compound 154, (1,4‐dimethyl‐2‐piperazinyl)methanol] | 96.9 ± 6.4% | 117% |  |  |  |
| O=C(O)c1ccccn1 [compound 58, 2‐pyridinecarboxylic acid] | 87.3 ± 6.1% | 97.9% |  |  |  |
| Cc1ccc2sc(CO)cc2c1 [compound 442, 5‐Methylbenzo[b]thiophene‐2‐methanol] | 71.3 ± 3.5% | 53.7% |  |  |  |
| NC(=O)Cc1ccc(O)cc1 [compound 192, 2‐(4‐hydroxyphenyl)acetamide] | 96.9 ± 9.5% | 44.6% |  |  |  |
| CN(C(N)=S)c1ccccc1 [compound 325, N‐methyl‐N‐phenylthiourea] | 33.9 ± 11.6% | 82.7% |  |  | 415 ± 24 µM |
| Oc1cccc(N2CCOCC2)c1 [compound 447, 3‐morpholinophenol] | 77.8 ± 11.8% | 62.8% |  |  |  |
| OCc1ccc2c(c1)OCCCO2 [compound 453, 3,4‐dihydro‐2H‐1,5‐benzodioxepin‐7‐ylmethanol] |  |  | 86.6 ± 3.2 percentage of controls | 51.6 percentage of controls |  |
| c1ccc(Cn2cccc2)nc1 [compound 249, 2‐(1H‐pyrrol‐1‐ylmethyl)pyridine] | 93.1 ± 19.9% | 83.6% |  |  |  |
| OCc1ccc(-c2cncnc2)cc1 [compound 505, (4‐pyrimidin‐5‐ylphenyl)methanol] | 78.6 ± 20% | 85.3% |  |  |  |
| N#Cc1ccc(N)cc1C(F)(F)F [compound 500, 4‐amino‐2‐(trifluoromethyl)benzonitrile] | 51 ± 10.6% | 72.8% |  |  |  |
| NS(=O)(=O)c1ccc(F)cc1F [compound 576, 2,4‐difluorobenzenesulfonamide] | 10.7 ± 9.3% | 12.9% |  |  |  |

| Structure (SMILES) | viability at 500 µM [1] | viability at 500 µM [2] | HeLa Cells Alamar Blue [1] | A549 Cells Alamar Blue [2] | CC50 [1] |
| --- | --- | --- | --- | --- | --- |
| Nc1cc(F)c(Cl)cc1N [compound 269, 4-chloro-5-fluorobenzene-1,2-diamine] | 23.4 ± 14.8% | 50.4% |  |  | 431 ± 53 µM |
| OCc1ccccc1C(F)(F)F [compound 407, [2‐(trifluoromethyl)phenyl]methanol] | 104 ± 13.9% | 90.2% |  |  |  |
| NCc1ccc(F)cc1 [compound 71, 4‐fluorobenzylamine] | 93.3 ± 10.3% | 110% |  |  |  |
| Cc1nc(CC(=O)O)cs1 [compound 243, 2‐(2‐methyl‐1,3‐thiazol‐4‐yl)acetic acid] | 99.5 ± 1.1% | 113% |  |  |  |
| O=C1CSC(c2cccs2)C1 (stereo not drawn) [compound 482, 5‐(2‐thienyl)tetrahydrothiophen‐3‐one] | 116 ± 6.7% | 112% |  |  |  |
| Cn1c(=S)oc2ccccc21 [compound 310, 3‐methyl‐1,3‐benzoxazole‐2(3H)‐thione] | 103 ± 14.3% | 104% |  |  |  |
| O=C(O)c1ccncc1 [compound 60, isonicotinic acid] | 98.3 ± 12.5% | 118% |  |  |  |
| NCc1ccc2c(c1)OCCO2 [compound 306, 2,3‐dihydro‐1,4‐benzodioxin‐6‐ylmethylamine] |  |  | 109.2 ± 5.6 percentage of controls | 72.7 percentage of controls |  |
| Cc1cc(CN)n(C)n1 [compound 73, (1,3‐dimethyl‐1H‐pyrazol‐5‐yl)methylamine] |  |  | 91.3 ± 0.6 percentage of controls | 107.6 percentage of controls |  |
| Cc1nc2ccccn2c1CO [compound 287, (2‐methylimidazo[1,2‐a]pyridin‐3‐yl)methanol] |  |  | 76.2 ± 14 percentage of controls | 79.7 percentage of controls |  |
| CC1(C)Cc2cccc(CO)c2O1 [compound 434, (2,2‐dimethyl‐2,3‐dihydro‐1‐benzofuran‐7‐yl)methanol] |  |  | 80.2 ± 12 percentage of controls | 51.1 percentage of controls |  |
| CNCc1ccc(OC)cc1 [compound 199, N‐(4‐methoxybenzyl)‐N‐methylamine] | 95.1 ± 15.3% | 71% |  |  |  |
| OCc1ccccc1Oc1ccccc1 [compound 621, (2‐phenoxyphenyl)methanol] | 74.9 ± 14.8% | 73.7% |  |  |  |
| Nc1ccccc1N1CCNCC1 [compound 429, 2‐piperazin‐1‐ylaniline] | 78.5 ± 7.7% | 54.3% |  |  |  |
| OCc1ccc(-c2ccsc2)cc1 [compound 545, (4‐thien‐3‐ylphenyl)methanol] | 84.3 ± 13.2% | 87.2% |  |  |  |
| Oc1ccc(-n2ccnc2)cc1 [compound 266, 4‐(1H‐imidazol‐1‐yl)phenol] | 83 ± 19.8% | 108% |  |  |  |
| CCOC(=O)CCc1ccc(O)cc1 [compound 585, ethyl 3‐(4‐hydroxyphenyl)propanoate] | 63.1 ± 3.9% | 61.7% |  |  |  |
| Cc1onc(-c2ccccc2)c1N [compound 384, 5‐methyl‐3‐phenyl‐4‐isoxazolamine] | 80.8 ± 13.4% | 75.5% |  |  |  |
| O=C(O)Cc1ccc(Cl)c(Cl)c1 [compound 659, 2‐(3,4‐dichlorophenyl)acetic acid] | 74 ± 17.1% | 106% |  |  |  |
